From US12258354B2, “AhR modulators” (IDEAYA BIOSCIENCES, INC., priority 2018, dated 2025) come the findings set out here.

The assay concerns the target T1, hAhR (Homo sapiens, UniProt P35869).
T1 construct: Stably integrated DRE-luciferase cell lines were generated by transducing the both cell lines with Cignal XRE luciferase reporter; endogenous in cells; host or cells: HEPG2 DRE-Luc cells (only the XRE luciferase reporter was transduced)
T1 sequence (P35869 11-848): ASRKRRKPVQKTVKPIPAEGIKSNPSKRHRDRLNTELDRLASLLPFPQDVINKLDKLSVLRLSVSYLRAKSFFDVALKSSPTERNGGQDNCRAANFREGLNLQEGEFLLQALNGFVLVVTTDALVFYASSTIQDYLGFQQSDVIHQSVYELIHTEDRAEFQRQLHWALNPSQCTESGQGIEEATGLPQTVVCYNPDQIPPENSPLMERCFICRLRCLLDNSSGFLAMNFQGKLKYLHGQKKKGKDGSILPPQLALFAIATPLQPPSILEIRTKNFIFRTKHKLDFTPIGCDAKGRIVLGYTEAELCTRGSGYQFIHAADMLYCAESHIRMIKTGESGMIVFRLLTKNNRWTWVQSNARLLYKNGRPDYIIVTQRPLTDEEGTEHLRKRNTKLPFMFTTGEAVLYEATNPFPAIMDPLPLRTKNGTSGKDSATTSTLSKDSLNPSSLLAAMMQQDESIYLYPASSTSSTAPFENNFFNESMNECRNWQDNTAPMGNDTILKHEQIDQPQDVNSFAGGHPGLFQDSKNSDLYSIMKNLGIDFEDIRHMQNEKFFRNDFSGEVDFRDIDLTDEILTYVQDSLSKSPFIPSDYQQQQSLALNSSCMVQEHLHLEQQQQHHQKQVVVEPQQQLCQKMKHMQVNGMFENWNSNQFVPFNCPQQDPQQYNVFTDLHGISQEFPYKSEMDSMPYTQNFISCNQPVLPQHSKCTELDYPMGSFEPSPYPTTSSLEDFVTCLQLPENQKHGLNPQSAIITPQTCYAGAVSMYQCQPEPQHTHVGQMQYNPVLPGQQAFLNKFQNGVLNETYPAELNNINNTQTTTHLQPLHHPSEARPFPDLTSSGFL
Kind of assay: DRE-luciferase transcriptional reporter assay in HEPG2 DRE-Luc cells, TCDD-induced (antagonist mode). The assay is classed as cell-based. The note with it: relative IC50, 3 nM TCDD, 24-hour incubation, firefly luciferase readout. The method, boiled down: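 Stable DRE(XRE)-luciferase HEPG2 clone seeded in OptiMEM with 0.5% heat-inactivated FBS, then given a semi-log compound dilution plus TCDD at 3 nM final. After 24 h, cells were lysed and firefly luminescence read. Response was normalised between TCDD and vehicle, and relative IC50 was taken as half-reduction between the fitted curve plateaus.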
For orientation: A reporter such as luciferase makes a cellular process visible.
Take `Cc1cc(-c2ccc3nc(C(F)(F)F)ccc3n2)ccc1N1CCOc2cn(C)nc2C1=O` [compound 048, 2-methyl-7-(2-methyl-4-(6-(trifluoromethyl)-1,5-naphthyridin-2-yl)phenyl)-6,7-dihydro-2H-pyrazolo[3,4-f][1,4]oxazepin-8 (5H)-one]: the IC50 was less than 200 nM.

In turn, `Cc1cc(-c2ncc3nc(C(F)(F)F)ccc3n2)ccc1N1CCOc2cnn(C)c2C1` [compound 049, 1-methyl-7-(2-methyl-4-(6-(trifluoromethyl)pyrido[3,2-d]pyrimidin-2-yl)phenyl)-5,6,7,8-tetrahydro-1H-pyrazolo[3,4-f][1,4]oxazepine] displayed an IC50 of less than 200 nM.

As to `Cn1ncc2c1C(=O)N(c1ccc(-c3ncc4nc(C(F)(F)F)ccc4n3)cc1)CCO2` [compound 050, 1-methyl-7-(4-(6-(trifluoromethyl)pyrido[3,2-d]pyrimidin-2-yl)phenyl)-6,7-dihydro-1H-pyrazolo[3,4-f][1,4]oxazepin-8 (5H)-one], the IC50 is less than 200 nM.

In the case of `Cc1cc(-c2ncc3nc(F)ccc3n2)ccc1N1CCOc2cnn(C)c2C1=O` [compound 051, 7-(4-(6-fluoropyrido[3,2-d]pyrimidin-2-yl)-2-methylphenyl)-1-methyl-6,7-dihydro-1H-pyrazolo[3,4-f][1,4]oxazepin-8 (5H)-one], the IC50 was 200 to 500 nM.

The compound `Cc1cc(-c2ccc3nc(F)ccc3n2)ccc1N1CCOc2cnn(C)c2C1=O` [compound 052, 7-(4-(6-fluoro-1,5-naphthyridin-2-yl)-2-methylphenyl)-1-methyl-6,7-dihydro-1H-pyrazolo[3,4-f][1,4]oxazepin-8 (5H)-one] yielded an IC50 of 500 to 1000 nM.

`Cc1cc(-c2ncc3cc(F)ccc3n2)ccc1N1CCOc2cnn(C)c2C1=O` [compound 053, 7-(4-(6-fluoroquinazolin-2-yl)-2-methylphenyl)-1-methyl-6,7-dihydro-1H-pyrazolo[3,4-f][1,4]oxazepin-8 (5H)-one] displayed an IC50 of 200 to 500 nM.

In turn, `Cc1cc(-c2ncc3cc(C(F)(F)F)ccc3n2)ccc1N1CCOc2cccnc2C1=O` [compound 054, 4-(2-methyl-4-(6-(trifluoromethyl)quinazolin-2-yl)phenyl)-3,4-dihydropyrido[2,3-f][1,4]oxazepin-5 (2H)-one] displayed an IC50 of 200 to 500 nM.

In the case of `Cc1cc(-c2ncc3cc(C(F)(F)F)ccc3n2)ccc1N1CCOc2cncnc2C1=O` [compound 055, 8-(2-methyl-4-(6-(trifluoromethyl)quinazolin-2-yl)phenyl)-7,8-dihydropyrimido[4,5-f][1,4]oxazepin-9 (6H)-one], the IC50 fell in the range of 200 to 500 nM.

Regarding `CCOC(=O)c1nn2c(c1C)C(=O)N(c1ccc(-c3ncc4cc(C(F)(F)F)ccc4n3)cc1C)CC2` [compound 056, ethyl 3-methyl-5-(2-methyl-4-(6-(trifluoromethyl)quinazolin-2-yl)phenyl)-4-oxo-4,5,6,7-tetrahydropyrazolo[1,5-a]pyrazine-2-carboxylate], the IC50 is less than 200 nM.

Turning to `Cc1cc(-c2ncc3cc(C(F)(F)F)ccc3n2)ccc1N1CCn2nc(CO)c(C)c2C1=O` [compound 057, 2-(hydroxymethyl)-3-methyl-5-(2-methyl-4-(6-(trifluoromethyl)-quinazolin-2-yl)phenyl)-6,7-dihydropyrazolo[1,5-a]pyrazin-4 (5H)-one], the IC50 is less than 200 nM.

Consider `Cc1cc(-c2ncc3cc(C(F)(F)F)ccc3n2)ccc1N1CCn2nc(C(C)O)c(C)c2C1=O` (stereo not shown) [compound 058, 2-(1-hydroxyethyl)-3-methyl-5-(2-methyl-4-(6-(trifluoromethyl)-quinazolin-2-yl)phenyl)-6,7-dihydropyrazolo[1,5-a]pyrazin-4 (5H)-one], for which the IC50 is less than 200 nM.

On to `Cc1cc(-c2ncc3cc(C(F)(F)F)ccc3n2)ccc1N1CCn2nc(C(C)(C)O)c(C)c2C1=O` [compound 059, 2-(2-hydroxypropan-2-yl)-3-methyl-5-(2-methyl-4-(6-(trifluoromethyl)-quinazolin-2-yl)phenyl)-6,7-dihydropyrazolo[1,5-a]pyrazin-4 (5H)-one], for which the IC50 is less than 200 nM.

The compound `Cc1cc(-c2ncc3cc(C(F)(F)F)ccc3n2)ccc1N1CCn2nc(C(=O)O)c(C)c2C1=O` [compound 060, 3-methyl-5-(2-methyl-4-(6-(trifluoromethyl)quinazolin-2-yl)phenyl)-4-oxo-4,5,6,7-tetrahydropyrazolo[1,5-a]pyrazine-2-carboxylic acid] registered an IC50 of 200 to 500 nM.

`Cc1cc(-c2ncc3cc(C(F)(F)F)ccc3n2)ccc1N1CCn2nc(CN3CCOCC3)c(C)c2C1=O` [compound 061, 3-methyl-5-(2-methyl-4-(6-(trifluoromethyl)quinazolin-2-yl)phenyl)-2-(morpholinomethyl)-6,7-dihydropyrazolo[1,5-a]pyrazin-4 (5H)-one] yielded an IC50 of less than 200 nM.

Compound `Cc1cc(-c2ncc3cc(C(F)(F)F)ccc3n2)ccc1N1CCn2nc(C(=O)N3CCOCC3)c(C)c2C1` [compound 062, (3-methyl-5-(2-methyl-4-(6-(trifluoromethyl)quinazolin-2-yl)phenyl)-4,5,6,7-tetrahydropyrazolo[1,5-a]pyrazin-2-yl)(morpholino)methanone] yielded an IC50 of less than 200 nM.

In turn, `Cc1cc(-c2ncc3cc(C(F)(F)F)ccc3n2)ccc1N1CCn2nc(CN(C)C)c(C)c2C1=O` [compound 063, 2-((dimethylamino)methyl)-3-methyl-5-(2-methyl-4-(6-(trifluoromethyl)-quinazolin-2-yl)phenyl)-6,7-dihydropyrazolo[1,5-a]pyrazin-4 (5H)-one] returned an IC50 of less than 200 nM.

`Cc1cc(-c2ncc3cc(C(F)(F)F)ccc3n2)ccc1N1CCn2ncc(Br)c2C1=O` [compound 064, 3-bromo-5-(2-methyl-4-(6-(trifluoromethyl)quinazolin-2-yl)phenyl)-6,7-dihydropyrazolo[1,5-a]pyrazin-4 (5H)-one]: the IC50 is less than 200 nM.

In the case of `Cc1cc(-c2ncc3cc(C(F)(F)F)ccc3n2)ccc1N1CCn2ncc(C(=O)O)c2C1=O` [compound 065, 5-(2-methyl-4-(6-(trifluoromethyl)quinazolin-2-yl)phenyl)-4-oxo-4,5,6,7-tetrahydropyrazolo[1,5-a]pyrazine-3-carboxylic acid], the IC50 was in the range of 500 to 1000 nM.

Turning to `Cc1cc(-c2ncc3cc(C(F)(F)F)ccc3n2)ccc1N1CCn2ncc(C(N)=O)c2C1=O` [compound 066, 5-(2-methyl-4-(6-(trifluoromethyl)quinazolin-2-yl)phenyl)-4-oxo-4,5,6,7-tetrahydropyrazolo[1,5-a]pyrazine-3-carboxamide], the IC50 is less than 200 nM.

For the compound `Cc1cc(-c2ncc3cc(C(F)(F)F)ccc3n2)ccc1N1CCn2ncc(C#N)c2C1=O` [compound 067, 5-(2-methyl-4-(6-(trifluoromethyl)quinazolin-2-yl)phenyl)-4-oxo-4,5,6,7-tetrahydropyrazolo[1,5-a]pyrazine-3-carbonitrile], the IC50 is less than 200 nM.

Turning to `Cc1cc(-c2ncc3cc(C(F)(F)F)ccc3n2)ccc1N1CCn2ncc(N3CCOCC3)c2C1=O` [compound 068, 5-(2-methyl-4-(6-(trifluoromethyl)quinazolin-2-yl)phenyl)-3-morpholino-6,7-dihydropyrazolo[1,5-a]pyrazin-4 (5H)-one], the IC50 is less than 200 nM.

In turn, `Cc1cc(-c2ncc3cc(C(F)(F)F)ccc3n2)ccc1N1CCn2ncc(CN3CCOCC3)c2C1=O` [compound 070, 5-(2-methyl-4-(6-(trifluoromethyl)quinazolin-2-yl)phenyl)-3-(morpholino-methyl)-6,7-dihydropyrazolo[1,5-a]pyrazin-4 (5H)-one] showed an IC50 of less than 200 nM.

In the case of `Cc1cc(-c2ncc3cc(C(F)(F)F)ccc3n2)ccc1N1CCOc2cnn(CCN3CCOCC3)c2C1=O` [compound 071, 7-(2-methyl-4-(6-(trifluoromethyl)quinazolin-2-yl)phenyl)-1-(2-morpholinoethyl)-6,7-dihydro-1H-pyrazolo[3,4-f][1,4]oxazepin-8 (5H)-one], the IC50 is 500 to 1000 nM.

With `Cc1cc(-c2ncc3cc(C(F)(F)F)ccc3n2)ccc1N1CCOc2cnn(CCN3CCC(O)CC3)c2C1=O` [compound 072, 1-(2-(4-hydroxypiperidin-1-yl)ethyl)-7-(2-methyl-4-(6-(trifluoromethyl)-quinazolin-2-yl)phenyl)-6,7-dihydro-1H-pyrazolo[3,4-f][1,4]oxazepin-8 (5H)-one], the IC50 lay in the range of 1000 to 10000 nM.

As for `Cc1cc(-c2ncc3cc(C(F)(F)F)ccc3n2)ccc1N1CCOc2cnn(CCN3CCC(F)(F)CC3)c2C1=O` [compound 073, 1-(2-(4,4-difluoropiperidin-1-yl)ethyl)-7-(2-methyl-4-(6-(trifluoromethyl)-quinazolin-2-yl)phenyl)-6,7-dihydro-1H-pyrazolo[3,4-f][1,4]oxazepin-8 (5H)-one], the IC50 lay in the range of 1000 to 10000 nM.

What is called IC50 is the midpoint of a concentration-inhibition curve. The low end stands for higher potency, the high end for lower potency.
